Read-outs that look alike come from different tables or passages of the source.

One test concerns the target T1, α4β7 integrin (Homo sapiens, UniProt P13612+P26010).
T1 construct: endogenous in cells; host or cells: RPMI 8866 cells
T1 sequence (P13612 34-1032): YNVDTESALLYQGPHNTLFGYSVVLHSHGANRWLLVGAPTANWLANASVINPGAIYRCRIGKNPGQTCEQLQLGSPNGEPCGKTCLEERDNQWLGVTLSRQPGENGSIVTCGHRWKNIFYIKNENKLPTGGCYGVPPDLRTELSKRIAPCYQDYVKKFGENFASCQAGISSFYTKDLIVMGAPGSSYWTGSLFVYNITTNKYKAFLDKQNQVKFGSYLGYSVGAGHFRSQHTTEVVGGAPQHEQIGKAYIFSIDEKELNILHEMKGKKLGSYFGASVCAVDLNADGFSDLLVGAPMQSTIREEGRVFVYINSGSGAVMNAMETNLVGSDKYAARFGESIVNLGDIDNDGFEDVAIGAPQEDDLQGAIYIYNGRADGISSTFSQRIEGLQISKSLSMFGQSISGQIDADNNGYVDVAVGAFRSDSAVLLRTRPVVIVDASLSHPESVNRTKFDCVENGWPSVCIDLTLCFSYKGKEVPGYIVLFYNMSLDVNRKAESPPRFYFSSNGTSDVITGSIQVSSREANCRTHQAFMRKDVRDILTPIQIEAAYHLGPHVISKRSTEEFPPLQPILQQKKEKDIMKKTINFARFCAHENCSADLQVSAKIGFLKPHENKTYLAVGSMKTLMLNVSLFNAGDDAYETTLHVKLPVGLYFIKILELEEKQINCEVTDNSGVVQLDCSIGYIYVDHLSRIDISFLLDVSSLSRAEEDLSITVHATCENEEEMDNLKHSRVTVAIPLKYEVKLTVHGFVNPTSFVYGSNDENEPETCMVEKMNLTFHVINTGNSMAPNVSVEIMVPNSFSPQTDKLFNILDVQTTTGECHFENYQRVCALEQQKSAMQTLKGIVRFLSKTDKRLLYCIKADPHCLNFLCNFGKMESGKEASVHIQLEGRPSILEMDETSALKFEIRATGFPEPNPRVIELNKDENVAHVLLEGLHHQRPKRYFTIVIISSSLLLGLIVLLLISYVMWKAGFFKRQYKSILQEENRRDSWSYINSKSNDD
T1 sequence (P26010 20-798): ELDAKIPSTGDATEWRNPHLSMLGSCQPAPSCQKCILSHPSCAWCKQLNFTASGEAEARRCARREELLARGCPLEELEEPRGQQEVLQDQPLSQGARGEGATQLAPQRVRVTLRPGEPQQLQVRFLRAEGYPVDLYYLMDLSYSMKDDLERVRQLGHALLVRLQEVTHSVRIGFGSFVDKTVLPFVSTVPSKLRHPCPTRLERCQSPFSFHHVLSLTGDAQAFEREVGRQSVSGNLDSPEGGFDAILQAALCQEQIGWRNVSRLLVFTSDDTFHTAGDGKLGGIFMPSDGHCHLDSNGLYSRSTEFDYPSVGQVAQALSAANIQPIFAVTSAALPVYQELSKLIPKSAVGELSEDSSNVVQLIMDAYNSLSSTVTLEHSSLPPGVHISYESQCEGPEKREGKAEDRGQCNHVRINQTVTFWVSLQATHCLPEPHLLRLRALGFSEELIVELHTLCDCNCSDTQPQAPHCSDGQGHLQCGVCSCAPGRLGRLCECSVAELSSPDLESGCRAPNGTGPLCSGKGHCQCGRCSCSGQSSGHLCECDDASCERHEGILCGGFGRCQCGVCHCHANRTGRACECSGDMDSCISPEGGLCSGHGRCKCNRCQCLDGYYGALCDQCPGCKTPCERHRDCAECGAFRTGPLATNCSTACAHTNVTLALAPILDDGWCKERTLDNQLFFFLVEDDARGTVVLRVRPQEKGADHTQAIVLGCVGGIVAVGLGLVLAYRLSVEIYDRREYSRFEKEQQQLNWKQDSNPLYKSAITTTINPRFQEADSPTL
The test is described as follows: RPMI 8866 cell adhesion to mouse MAdCAM-1 (α4β7 binding assay). The test is classed as cell-based. As to conditions: RPMI 8866 cells, immobilized mouse MAdCAM-1. As to the method: RPMI 8866 Cell Adhesion to Mouse MAdCAM-1 (α4β7 Binding Assay)
Recombinant mouse MAdCAM-1 was coated on a 96-well plate overnight. Unbound MAdCAM-1 was washed away and plates were blocked with 0,5% BSA. Cells were labelled with BCECF-AM and added to ligand-coated wells. Test compounds were added to the wells followed by RPMI 8866 and the adhesion assay was performed for 45 min at room temperature. Following incubation, the wells were emptied and washed. Inhibition of binding was measured by the quantity of fluorescence bound to the plate for each of the various concentrations of test compound, as well as for controls containing no test compound, with a Cytofluor 2300 fluorescence measurement system.

Another test deals with T2, α4β1 integrin (Homo sapiens, UniProt P05556+P13612).
T2 construct: endogenous in cells; host or cells: U-937 cells
The test is described as follows: U-937 cell adhesion to human VCAM-1 (α4β1 binding assay). As to conditions: U-937 cells, immobilized human VCAM-1; read-out: IC50 values in the α4β1 assays. The test is classed as cell-based. As for the experimental part: U-937 Cell Adhesion to Human VCAM-1 (α4β1 Binding Assay)
Recombinant human soluble VCAM-1 (R&D Systems Ltd., UK) at 2 μg/ml in PBS was immobilized overnight onto microtiter plates. Unbound VCAM-1 was washed away and VCAM-1 coated plates were blocked with bovine serum albumin (BSA) 2,5% in PBS for 2 h at room temperature. U-937 cells were labelled with 5-carboxyfluorescein diacetate (5-CFDA) in order to detect bound cells to the wells. Test compounds were added to the wells followed by U-937 cells and the adhesion assay was performed for 1 h at 37° C. Following incubation, the wells were emptied and washed. Inhibition of binding was measured by the quantity of fluorescence bound to the plate for each of the various concentrations of test compound, as well as for controls containing no test compound, with a Cytofluor 2300 fluorescence measurement system.

The mark [1] stands for this setting: read-out: IC50 values in the α4β7 assays.
[2] abbreviates: read-out: IC50 values in the α4β7.

T2 sequence (P05556 21-798, one chain of several): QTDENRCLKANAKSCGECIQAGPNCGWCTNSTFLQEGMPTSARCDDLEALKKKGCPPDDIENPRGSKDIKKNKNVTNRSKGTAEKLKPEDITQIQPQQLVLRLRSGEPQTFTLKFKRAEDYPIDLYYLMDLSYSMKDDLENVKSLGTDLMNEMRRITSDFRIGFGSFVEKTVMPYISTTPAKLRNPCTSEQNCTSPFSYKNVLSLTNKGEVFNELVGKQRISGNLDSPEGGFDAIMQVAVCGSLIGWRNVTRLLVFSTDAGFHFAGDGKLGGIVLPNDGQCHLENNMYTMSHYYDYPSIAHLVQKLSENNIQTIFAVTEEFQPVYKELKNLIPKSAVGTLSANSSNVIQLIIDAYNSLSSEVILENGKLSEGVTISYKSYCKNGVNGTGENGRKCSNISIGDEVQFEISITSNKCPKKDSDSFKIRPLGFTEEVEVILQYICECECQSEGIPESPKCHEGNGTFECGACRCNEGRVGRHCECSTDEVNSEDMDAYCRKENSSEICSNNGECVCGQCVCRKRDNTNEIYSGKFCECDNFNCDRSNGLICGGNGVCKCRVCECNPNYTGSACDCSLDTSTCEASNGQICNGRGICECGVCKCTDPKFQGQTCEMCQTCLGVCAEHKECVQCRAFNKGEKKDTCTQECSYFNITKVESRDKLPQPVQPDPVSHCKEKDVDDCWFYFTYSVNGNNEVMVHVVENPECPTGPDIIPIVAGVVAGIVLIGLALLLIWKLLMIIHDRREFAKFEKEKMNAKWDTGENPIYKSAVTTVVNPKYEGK

One may read the IC50 as the concentration needed to halve the response being measured. On to `CN(C(=O)N[C@@H](Cc1ccc(NC(=O)c2c(Cl)cccc2Cl)cc1)C(=O)O)c1ccccc1S(=O)(=O)c1ccccc1` [Example 23, (S)-2-[3-(2-Benzenesulfonylphenyl)-3-methylureido]-3-[4-(2,6-dichlorobenzoylamino)phenyl]propionic acid], for which the IC50 was 1000 to 10000 nM at α4β7 integrin (setting [1]) and under 100 nM on α4β1 integrin.
`O=C(Nc1ccccc1S(=O)(=O)N1CCCCC1)N[C@@H](Cc1ccc(NC(=O)c2c(Cl)cccc2Cl)cc1)C(=O)O` [Example 38, (S)-3-[4-(2,6-Dichlorobenzoylamino)phenyl]-2-{3-[2-(piperdine-1-sulfonyl)phenyl]ureido}propionic acid]: the values for the IC50 at α4β7 integrin (setting [1]) and at α4β1 integrin were 1000 to 10000 nM and under 100 nM, respectively.
Consider `CN(C1CCCCC1)S(=O)(=O)c1ccccc1NC(=O)N[C@@H](Cc1ccc(NC(=O)c2c(Cl)cccc2Cl)cc1)C(=O)O` [Example 40], for which the values for the IC50 on α4β7 integrin (setting [1]) and at α4β1 integrin were 1000 to 10000 nM and under 100 nM, respectively.
Regarding `CN(C(=O)N[C@@H](Cc1ccc(NC(=O)c2c(Cl)cccc2Cl)cc1)C(=O)O)c1ccccc1S(=O)(=O)N1CCCCC1` [Example 76, (S)-3-[4-(2,6-Dichlorobenzoylamino)phenyl]-2-{3-methyl-3-[2-(piperidine-1-sulfonyl)-phenyl]ureido}propionic acid], the IC50 at α4β7 integrin (setting [1]) is 1000 to 10000 nM; on α4β1 integrin, under 100 nM.
With `CCCN(C(=O)N[C@@H](Cc1ccc(NC(=O)c2c(Cl)cncc2Cl)cc1)C(=O)O)c1ccccc1C(=O)N(C)C1CCCCC1` [Example 82], the IC50 on α4β7 integrin (setting [2]) and on α4β1 integrin was under 100 nM throughout.
For `CN(C(=O)c1ccccc1N(CC1CC1)C(=O)N[C@@H](Cc1ccc(NC(=O)c2c(Cl)cncc2Cl)cc1)C(=O)O)C1CCCCC1` [Example 83], the IC50 on α4β7 integrin (setting [2]) and on α4β1 integrin was under 100 nM throughout.
As for `CN1CCN(S(=O)(=O)c2ccccc2NC(=O)N[C@@H](Cc2ccc(NC(=O)c3c(Cl)cncc3Cl)cc2)C(=O)O)CC1` [Example 90, (S)-3-(4-{[1-(3,5-Dichloropyridin-4-yl)methanoyl]amino}phenyl)-2-{3-[2-(4-methylpiperazine-1-sulfonyl)phenyl]ureido}propionic acid], the IC50 at α4β7 integrin (setting [2]) and at α4β1 integrin was under 100 nM each time.
As to `CN1CCN(C(=O)Oc2ccc(C[C@H](NC(=O)Nc3ccccc3S(=O)(=O)c3ccccc3)C(=O)O)cc2)CC1` [Example 114, 4-Methylpiperazine-1-carboxylic acid 4-{(S)-2-[3-(2-benzenesulfonylphenyl)ureido]-2-carboxyethyl}phenyl ester], on α4β7 integrin (setting [1]), the IC50 fell in the range of 1000 to 10000 nM.
As to `O=C(Nc1ccccc1S(=O)(=O)c1ccccc1)N[C@@H](Cc1ccc(OC(=O)c2c(Cl)cncc2Cl)cc1)C(=O)O` [Example 116, 3,5-Dichloroisonicotinic acid 4-{(S)-2-[3-(2-benzenesulfonylphenyl)ureido]-2-carboxyethyl}phenyl ester], the IC50 on α4β1 integrin was under 100 nM.
The same measure, in the same setting: the same measure for `O=C(Nc1ccccc1S(=O)(=O)c1ccccc1)N[C@@H](Cc1ccc(Nc2nccc3cnccc23)cc1)C(=O)O` [Example 122, (S)-2-[3-(2-Benzenesulfonylphenyl)ureido]-3-[4-([2,6]naphthyridin-1-ylamino)phenyl]propionic acid]: under 100 nM; for `O=C(Nc1ccccc1S(=O)(=O)N1CCCCC1)N[C@@H](Cc1ccc(Nc2nccc3cnccc23)cc1)C(=O)O` [Example 124, (S)-3-[4-([2,6]Naphthyridin-1-ylamino)phenyl]-2-{3-[2-(piperidine-1-sulfonyl)phenyl]ureido}propionic acid]: under 100 nM; for `O=C(Nc1ccccc1S(=O)(=O)c1ccccc1)N[C@@H](Cc1ccc(Nc2nccc3ccncc23)cc1)C(=O)O` [Example 128, (S)-2-[3-(2-Benzenesulfonylphenyl)ureido]-3-[4-([2,7]naphthyridin-1-ylamino)phenyl]propionic acid]: under 100 nM.
Still for that read-out and setting: the same measure for `O=C(Nc1ccccc1S(=O)(=O)N1CCCCC1)N[C@@H](Cc1ccc(Nc2nccc3ccncc23)cc1)C(=O)O` [Example 130, (S)-3-[4-([2,7]Naphthyridin-1ylamino)-phenyl]-2-{3-[2-(piperidine-1-sulfonyl)phenyl]ureido}propionic acid]: under 100 nM.
Turning to `O=C(Nc1ccccc1S(=O)(=O)c1ccccc1)N[C@@H](Cc1ccc(Oc2nccc3cnccc23)cc1)C(=O)O` [Example 134, (S)-2-[3-(2-Benzenesulfonylphenyl)ureido]-3-[4-([2,6]naphthyridin-1-yloxy)phenyl]propionic acid], the IC50 at α4β1 integrin is under 100 nM.
For `O=C(Nc1ccccc1S(=O)(=O)N1CCCCC1)N[C@@H](Cc1ccc(Oc2nccc3cnccc23)cc1)C(=O)O` [Example 136, (S)-3-[4-([2,6]Naphthyridin-1-yloxy)phenyl]-2-{3-[2-(piperidine-1-sulfonyl)phenyl]ureido}propionic acid], the IC50 on α4β1 integrin was under 100 nM.
Still for that read-out and setting: the value for `O=C(Nc1ccccc1S(=O)(=O)N1CCCCC1)N[C@@H](Cc1ccc(Oc2nccc3ccncc23)cc1)C(=O)O` [Example 140, (S)-3-[4-([2,7]Naphthyridin-1-yloxy)phenyl]-2-{3-[2-(piperidine-1-sulfonyl)phenyl]ureido}propionic acid] was under 100 nM.
For `CN(C(=S)N[C@@H](Cc1ccc(NC(=O)c2c(Cl)cncc2Cl)cc1)C(=O)O)c1ccccc1Cc1ccccc1` [Example 144, (S)-2-[3-(2-Benzylphenyl)-3-methylthioureido]-3-(4-{[1-(3,5-dichloropyridin-4-yl)methanoyl]amino}phenyl)propionic acid], the IC50 on α4β1 integrin was under 100 nM.
Same read-out and setting: the value for `CN(C(=S)N[C@@H](Cc1ccc(NC(=O)c2c(Cl)cncc2Cl)cc1)C(=O)O)c1ccccc1C(=O)N(C)C1CCCCC1` [Example 146] was under 100 nM.
Consider `O=C(Nc1ccc(C[C@H](NC(=S)Nc2ccccc2S(=O)(=O)N2CCCCC2)C(=O)O)cc1)c1c(Cl)cncc1Cl` [Example 147], for which the IC50 on α4β1 integrin was under 100 nM.

These data come from patent US7253171B2 (Laboratorios Almirall, S.A., priority 2001, dated 2007).
